Measured values reported in patent publication US20250206789A1, “ZINC FINGER DEGRON SEQUENCES” (STICHTING HET NEDERLANDS KANKER INSTITUUT-ANTONI VAN …, priority 2022, published 2025).

Test system: Jurkat cells
Experiment: SynFinger library screen: CD69 expression of CRASH-IT (Zap70-PD1-degron) transduced Jurkat cells with or without lenalidomide, enrichment index from NGS reads
Format: cell-based
Design: key to EI / EI index (enrichment index): enrichment index; low EI = SynFinger with desired properties
Conditions: Table 6; dual substitutions in first hybrid zinc finger domain; Jurkat, 50 nM lenalidomide vs mock, CD69-HI/CD69-LO; low EI = desired
Source text: […] Jurkat cells were transduced with the SynFinger library (SynFinger containing CRASH-IT switches) at a 12.8% transduction efficiency and sorted for high EGFP expression to enrich transduced cells. For quality control of the SynFinger transduced Jurkat cells, SynFinger sequences were amplified and analyzed by NGS. 10 randomly selected SynFinger encoding DNA sequences or DNA sequences encoding the same SynFinger amino acid sequences but contain 2 nucleotide mismatches due to alternative codon usage were used to assess ability to distinguish true SynFinger sequences from noise in the NGS data. 10/10 SynFinger encoding full-nucleotide sequence match sequences were observed within NGS data whereas the 2 nucleotide mismatch containing sequences were not detected.
Jurkat cells expressing the SynFinger library were treated with 50 nM lenalidomide (a suboptimal dose that activates only ˜50% of cells expressing a CRASH-IT switch containing the parental double hybrid degron in Jurkat cells, as compared to a maximally effective 1000 nM lenalidomide dose) or were mock treated for 24 hours, and subsequently activated with anti-CD3/anti-CD28 antibodies in the presence or absence of 50 nM lenalidomide for 5 hours. Afterwards, cells were stained with IR dye (1:400) and anti-CD69-PE (1:200). Cells were sorted for live (IR dye negative), EGFP high end CD69 high (top 5%) or CD69 low (bottom 5%) expression using Aria Fusion cytometers.
Subsequently, cells were washed with PBS, and cell pellets were frozen at −20° C. until DNA extraction. Genomic DNA was isolated using the DNeasy Blood & Tissue Kit (Qiagen) according to the manufacturer's instructions, using 5×10^6 cells per column. DNA was eluted in 22 μl RNAse free water. Deep sequencing adapters and indexes were added to SynFinger encoding DNA sequences using PCR amplification. Briefly, 3 μg genomic DNA (20 μl), indexed forward and reverse primers (10 μM, 2.5 μl each) and 25 μl NEBNext® High-Fidelity 2×PCR Master Mix were added to the PCR reaction. An optimized PCR reaction (98° C. for 30 s, (98° C. for 10 s, 56° C. for 10 s, 72° C. for 5 s)×25 cycles, 72° C. for 3 min was performed using Eppendorf PCR cyclers.
Indexed PCR products were run on agarose gel, relative DNA concentrations were estimated by measuring band intensity, and 12 indexed PCR reaction products were mixed per MiSeq chip. To increase sequence diversity, samples were mixed with 25% PhiX DNA. In total, 2 MiSeq chips were used (100 bp, single read). To distinguish genuine SynFinger sequences from sequencing errors, results were filtered using a reference list of actual sequences used in SynFinger library design (100% codon match). Sequences with a very low number of reads (sum of all samples below 500 reads) were excluded from analysis.
To identify SynFingers that improve sensitivity of CRASH-IT switches towards lenalidomide while preserving or improving stringency of switch mediated control of T cell activation in the absence of lenalidomide, an enrichment index (EI) value was calculated for each sequence as described below, and SynFingers were ranked according to their EI, with a low EI indicating a SynFinger with desired properties.
CD69-HI and […] read counts from top 100 SynFingers were compared with read counts from the parental double hybrid degron using a two-sided Fisher's exact test to determine enrichment of CD69-HI cells in the presence of lenalidomide and enrichment of CD69-LO cells in the absence of lenalidomide.
To further improve the sensitivity of double hybrid degron towards IMiDs, we performed a high throughput screen using a library of ˜50,200 CRASH-IT variants that encode either single or double amino acid substitutions at the indicated positions of the first hybrid zinc finger sequence, thereby changing 18 amino acids of this zinc finger into any amino acid except cysteine (FIG. 3). […]

Row | Substance | EI index (enrichment index)
1 | 58 (LQCRICGFTCRQKGNMLRHIKLH) [compound 58] | 0.02584
2 | 31 (LQCEICGFTCRQKTRLLRHIKLH) [compound 31] | 0.01686
3 | 95 (LQCLICGFTCRQKGNLLRHIRLH) [compound 95] | 0.04285
4 | 69 (LQCEICGFTCRQKGNLDRHIKRH) [compound 69] | 0.03188
5 | 54 (LQCEICGFTCRQKGNLLVHIALH) [compound 54] | 0.02408
6 | 72 (YQCEICGFTCRQKGNLLRHIILH) [compound 72] | 0.03275
7 | 33 (LQCDICGFTCRQKGNLLLHIKLH) [compound 33] | 0.01705
8 | 93 (LQCEICGFTSRQKGRLLRHIKLH) [compound 93] | 0.04175
9 | 32 (LQCEICGFTCRQEKNLLRHIKLH) [compound 32] | 0.01693
10 | 99 (LQCEICGFTCRQKGNLLRHINNH) [compound 99] | 0.04339
11 | 73 (LQCHICGFTSRQKGNLLRHIKLH) [compound 73] | 0.03303
12 | 39 (LQCEICGFTCRQKGRLLRHIKQH) [compound 39] | 0.01901
13 | 23 (LQCEICGFTCRKKGALLRHIKLH) [compound 23] | 0.0133
14 | 14 (LQCEICGFTCRQKGNLIRHILLH) [compound 14] | 0.009984
15 | 67 (LQCEICGFTCRQQLNLLRHIKLH) [compound 67] | 0.0303
16 | 96 (LQCEICGFTCRQKLNLLRHIKRH) [compound 96] | 0.04285
17 | 1 (LQCRICGFTCRLKGNLLRHIKLH) [compound 1] | 0
18 | 35 (LQCEICGFTARRKGNLLRHIKLH) [compound 35] | 0.01754
19 | 10 (LQCWICGFTCRQKGNLLRHIYLH) [compound 10] | 0.00695
20 | 89 (MQCEICGFTCRQKSNLLRHIKLH) [compound 89] | 0.04065
21 | 62 (LQCEICGFTCRQPGNLLRHIKRH) [compound 62] | 0.02767
22 | 71 (LQCEICGFTCRKKNNLLRHIKLH) [compound 71] | 0.03227

Row | Substance | EI index (enrichment index)
23 | 34 (LQCEICGFTCRQKYNLLRHISLH) [compound 34] | 0.01723
24 | 25 (LQCKICGFTCRQMGNLLRHIKLH) [compound 25] | 0.01383
25 | 86 (LQCVICGFQCRQKGNLLRHIKLH) [compound 86] | 0.0393
26 | 47 (LQCEICGFTCRQKGTLLRHIKRH) [compound 47] | 0.02209
27 | 16 (LQCEICGFTCRRKGNLYRHIKLH) [compound 16] | 0.0107
28 | 59 (LQCEICGFTCRLKGNLLLHIKLH) [compound 59] | 0.02682
29 | 41 (LQCEVCGFTCRKKGNLLRHIKLH) [compound 41] | 0.01944
30 | 4 (LQCEICGFTCRQKMRLLRHIKLH) [compound 4] | 0.00411
31 | 19 (LQCEICGFTCRLKGNLLRHILLH) [compound 19] | 0.01177
32 | 60 (LQCEICGFTCRQWGNYLRHIKLH) [compound 60] | 0.02739
33 | 100 (LQCEICGFTCRQKGRLLRHIHLH) [compound 100] | 0.04461
34 | 74 (WQCEICGFTCRQKGNLLRHIALH) [compound 74] | 0.03362
35 | 78 (LQCNICGFTCRQLGNLLRHIKLH) [compound 78] | 0.03544
36 | 80 (LQCEICGFTCRQPGNLLRHYKLH) [compound 80] | 0.03685
37 | 24 (LQCEICGFTCRQKHNLLRHIKNH) [compound 24] | 0.01351
38 | 77 (LQCEICGFTCRKRGNLLRHIKLH) [compound 77] | 0.03531
39 | 38 (LQCEICGYTCRKKGNLLRHIKLH) [compound 38] | 0.01794
40 | 44 (LQCEICGFTCRQKANLKRHIKLH) [compound 44] | 0.02064
41 | 2 (LQCEICGFTCRRTGNLLRHIKLH) [compound 2] | 0.002912
42 | 37 (FQCEICGFTCRQKHNLLRHIKLH) [compound 37] | 0.01787
43 | 81 (LQCEICGFTCRQDGRLLRHIKLH) [compound 81] | 0.03726
44 | 9 (LQCEICGFTCRRVGNLLRHIKLH) [compound 9] | 0.006877

Row | Substance | EI index (enrichment index)
45 | 40 (LQCEICGFTCKQKKNLLRHIKLH) [compound 40] | 0.01915
46 | 75 (LQCHICGFTCRQHGNLLRHIKLH) [compound 75] | 0.03442
47 | 36 (YQCVICGFTCRQKGNLLRHIKLH) [compound 36] | 0.01769
48 | 15 (LQCLICGFTCRRKGNLLRHIKLH) [compound 15] | 0.01014
49 | 30 (LQCMICGFTFRQKGNLLRHIKLH) [compound 30] | 0.01673
50 | 83 (LQCWICGFTCRQKGNMLRHIKLH) [compound 83] | 0.03839
51 | 6 (LQCEICGFTCRQKNNLLRHIALH) [compound 6] | 0.004719
52 | 12 (IQCEACGFTCRQKGNLLRHIKLH) [compound 12] | 0.008564
53 | 56 (LQCKICGFTCRHKGNLLRHIKLH) [compound 56] | 0.02543
54 | 87 (LQCEICGFTCRQKQRLLRHIKLH) [compound 87] | 0.0394
55 | 50 (LQCEICGFTCRNKKNLLRHIKLH) [compound 50] | 0.02307
56 | 90 (LQCEICGFTCRQHGVLLRHIKLH) [compound 90] | 0.04107
57 | 46 (LQCEICGFTCRQKGNLYRHYKLH) [compound 46] | 0.021
58 | 76 (LQCQICGFTCRRKGNLLRHIKLH) [compound 76] | 0.03445
59 | 79 (LQCEICGFTCRKKGNLLRHIILH) [compound 79] | 0.03569
60 | 64 (LQCEICGFTCRQKGNLHLHIKLH) [compound 64] | 0.02947
61 | 43 (FQCEICGFTCRQKGRLLRHIKLH) [compound 43] | 0.01977
62 | 45 (LQCIICGFTCRQKGNLWRHIKLH) [compound 45] | 0.0209
63 | 92 (LQCEICGFTCRQLRNLLRHIKLH) [compound 92] | 0.04129
64 | 66 (LQCVICGFTCRQKGNLVRHIKLH) [compound 66] | 0.02989
65 | 29 (LQCEICGFTCRQVGWLLRHIKLH) [compound 29] | 0.01609
66 | 49 (LQCEICGFTCRRKGSLLRHIKLH) [compound 49] | 0.02268
